Assay results taken from US10189839B2, “Tricyclic imidazole compounds as inhibitors of tryptophan hydroxylase” (ACTELION PHARMACEUTICALS LTD, priority 2013, dated 2019).

molecular target: T1, full length human TPH1 (Homo sapiens, UniProt P17752); test: Biochemical in vitro assay using fluorescence readout (TPH1 enzyme activity); settings: Table 1, mean where determined several times
T1 construct: To generate the enzyme, full length human TPH1 is cloned into the plasmid pET20b(+); made in house; host or cells: E. coli
T1 sequence (P17752 1-444): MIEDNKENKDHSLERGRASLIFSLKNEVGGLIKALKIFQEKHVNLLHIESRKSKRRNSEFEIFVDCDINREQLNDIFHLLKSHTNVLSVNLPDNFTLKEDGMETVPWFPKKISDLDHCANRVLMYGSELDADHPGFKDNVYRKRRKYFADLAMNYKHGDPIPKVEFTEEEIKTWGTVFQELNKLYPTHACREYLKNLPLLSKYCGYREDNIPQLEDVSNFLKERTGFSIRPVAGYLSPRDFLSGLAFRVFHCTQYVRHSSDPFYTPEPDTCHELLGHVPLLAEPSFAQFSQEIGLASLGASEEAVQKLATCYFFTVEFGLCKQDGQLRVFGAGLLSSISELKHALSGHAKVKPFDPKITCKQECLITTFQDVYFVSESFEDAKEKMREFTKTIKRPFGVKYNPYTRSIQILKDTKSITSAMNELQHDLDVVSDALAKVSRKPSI
Summary of the method: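 E. coli-expressed full-length human TPH1 (40-80 nM), affinity- and size-exclusion-purified, incubated 60 min at 15° C. in 0.1M Tris-HCl pH 7.6 with 1 mM DTT, 0.2 mg/ml catalase, 100 μM 6-methyltetrahydropterine and 40 μM L-tryptophan. 5-Hydroxy-L-tryptophan read by fluorescence (ex 300/em 540 nm) after HClO4 quench; IC50 versus vehicle, mean where repeated.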

Structure (SMILES) | IC50
CC(=O)N1CCn2c(nc3c2C(c2ccc(C4CC4)cc2F)N(C(=O)COc2ccc(N4CCOCC4)cc2Cl)CC3)C1 (centres unmarked) [Example 5.2.5, 1-(7-acetyl-1-(4-cyclopropyl-2-fluorophenyl)-3,4,6,7,8,9-hexahydropyrido[4′,3′:4,5]imidazo[1,2-a]pyrazin-2(1H)-yl)-2-(2-chloro-4-morpholinophenoxy)ethanone] | 7 nM
CC(=O)N1CCn2c(nc3c2C(c2sc(C(=O)N(C)C)cc2F)N(C(=O)COc2ccc(C(=O)N(C)C)nc2Cl)CC3)C1 (centres unmarked) [Example 5.7.1, 5-(2-(7-acetyl-1-(5-(dimethylcarbamoyl)-3-fluorothiophen-2-yl)-3,4,6,7,8,9-hexahydropyrido[4′,3′:4,5]imidazo[1,2-a]pyrazin-2(1H)-yl)-2-oxoethoxy)-6-chloro-N,N-dimethylpicolinamide] | 27 nM
Cc1cc(F)cnc1C1c2c(nc3n2CCCC3)CCN1C(=O)COc1ccc(NS(C)(=O)=O)nc1Cl (centres unmarked) [Example 1.19.1, N-(6-chloro-5-(2-(1-(5-fluoro-3-methylpyridin-2-yl)-3,4,6,7,8,9-hexahydroimidazo[1,2-a:5,4-c′]dipyridin-2(1H)-yl)-2-oxoethoxy)pyridin-2-yl)methanesulfonamide] | 113 nM
CC(=O)N1CCn2c(nc3c2C(c2ccc(C)cc2F)N(C(=O)COc2ccc(CN4CCOCC4)cc2Cl)CC3)C1 (centres unmarked) [Example 5.12.3, 1-(7-acetyl-1-(2-fluoro-4-methylphenyl)-3,4,6,7,8,9-hexahydropyrido[4′,3′:4,5]imidazo[1,2-a]pyrazin-2(1H)-yl)-2-(2-chloro-4-(morpholinomethyl)phenoxy)ethanone] | 15 nM
O=C(COc1ccc(N2CCOCC2)nc1Cl)N1CCc2nc3n(c2C1c1ncc(C2CC2)cc1F)CCNC3 (centres unmarked) [Example 5.4.3, 2-((2-chloro-6-morpholinopyridin-3-yl)oxy)-1-(1-(5-cyclopropyl-3-fluoropyridin-2-yl)-3,4,6,7,8,9-hexahydropyrido[4′,3′:4,5]imidazo[1,2-a]pyrazin-2(1H)-yl)ethanone] | 20 nM
Cc1nc(C)c(C2c3c(nc4n3CCCC4)CCN2C(=O)COc2ccc(N3CCCS3(=O)=O)nc2Cl)s1 (centres unmarked) [Example 1.10.14, 2-((2-chloro-6-(1,1-dioxidoisothiazolidin-2-yl)pyridin-3-yl)oxy)-1-(1-(2,4-dimethylthiazol-5-yl)-3,4,6,7,8,9-hexahydroimidazo[1,2-a:5,4-c′]dipyridin-2(1H)-yl)ethanone] | 14 nM
CCc1nc(NS(C)(=O)=O)ncc1OCC(=O)N1CCc2nc3n(c2C1c1ccc(Cl)cc1F)CCS3 (centres unmarked) [Example 4.1.10, N-(5-(2-(5-(4-chloro-2-fluorophenyl)-2,3,7,8-tetrahydrothiazolo[2′,3′:2,3]imidazo[4,5-c]pyridin-6(5H)-yl)-2-oxoethoxy)-4-ethylpyrimidin-2-yl)methanesulfonamide] | 67 nM
CC(=O)N1CCn2c(nc3c2C(c2sccc2F)N(C(=O)COc2ccc(N4CCOCC4)nc2Cl)CC3)C1 (centres unmarked) [Example 5.13.1, 1-(7-acetyl-1-(3-fluorothiophen-2-yl)-3,4,6,7,8,9-hexahydropyrido[4′,3′:4,5]imidazo[1,2-a]pyrazin-2(1H)-yl)-2-((2-chloro-6-morpholinopyridin-3-yl)oxy)ethanone] | 6 nM
Cc1nc(C)c(C2c3c(nc4n3CCCC4)CCN2C(=O)COc2ccc(-c3ncco3)nc2Cl)s1 (centres unmarked) [Example 1.10.3, 2-((2-chloro-6-(oxazol-2-yl)pyridin-3-yl)oxy)-1-(1-(2,4-dimethylthiazol-5-yl)-3,4,6,7,8,9-hexahydroimi-dazo[1,2-a:5,4-c′]dipyridin-2(1H)-yl)ethanone] | 16 nM
CC(=O)N1CCn2c(nc3c2C(c2ccc(Cl)cn2)N(C(=O)COc2ccc(N4CCOCC4)nc2Cl)CC3)C1 (centres unmarked) [Example 5.15.1, 1-(7-acetyl-1-(5-chloropyridin-2-yl)-3,4,6,7,8,9-hexahydropyrido[4′,3′:4,5]imidazo[1,2-a]pyrazin-2(1H)-yl)-2-((2-chloro-6-morpholinopyridin-3-yl)oxy)ethanone] | 11 nM
CC(C)(C)OC(=O)N1CCn2c(nc3c2C(c2ncc(C4CC4)cc2F)N(C(=O)COc2ccc(N4CCOCC4)nc2Cl)CC3)C1 (centres unmarked) [Example 5.4.1, tert-butyl 2-(2-((2-chloro-6-morpholinopyridin-3-yl)oxy)acetyl)-1-(5-cyclopropyl-3-fluoropyridin-2-yl)-1,2,3,4,8,9-hexahydropyrido[4′,3′:4,5]imidazo[1,2-a]pyrazine-7(6H)-carboxylate] | 77 nM
CCc1nc(NS(C)(=O)=O)ccc1OCC(=O)N1CCc2nc3n(c2C1c1ccc(C)c(F)c1F)CCS3 (centres unmarked) [Example 4.4.1, N-(5-(2-(5-(2,3-difluoro-4-methylphenyl)-2,3,7,8-tetrahydrothiazolo[2′,3′:2,3]imidazo[4,5-c]pyridin-6(5H)-yl)-2-oxoethoxy)-6-ethylpyridin-2-yl)methanesulfonamide] | 6 nM

The remaining lines, values ahead:

IC50 | Structure (SMILES)
23 nM | CS(=O)(=O)Nc1ccc(OCC(=O)N2CCc3nc4n(c3[C@@H]2c2ccc(Cl)cc2F)CCCC4)c(Cl)n1 [Example 1.1.17, (S)-N-(6-chloro-5-(2-(1-(4-chloro-2-fluorophenyl)-3,4,6,7,8,9-hexahydroimidazo[1,2-a:5,4-c′]dipyridin-2(1H)-yl)-2-oxoethoxy)pyridin-2-yl)methanesulfonamide]
55 nM | CC(C)N(C)C(=O)c1ccc(OCC(=O)N2CCc3nc4n(c3C2c2ccc(Cl)cc2F)CCCC4)c(Cl)n1 (centres unmarked) [Example 1.1.8, 6-chloro-5-(2-(1-(4-chloro-2-fluorophenyl)-3,4,6,7,8,9-hexahydroimidazo[1,2-a:5,4-c′]dipyridin-2(1H)-yl)-2-oxoethoxy)-N-isopropyl-N-methylpicolinamide]
37 nM | CS(=O)(=O)Nc1ccc(OCC(=O)N2CCc3nc4n(c3C2c2ccc(OC(F)(F)F)cc2F)CCCC4)c(Cl)n1 (centres unmarked) [Example 1.20.2, N-(6-chloro-5-(2-(1-(2-fluoro-4-(trifluoromethoxy)phenyl)-3,4,6,7,8,9-hexahydroimidazo[1,2-a:5,4-c′]dipyridin-2(1H)-yl)-2-oxoethoxy)pyridin-2-yl)methanesulfonamide]
19 nM | COCc1ccc(C2c3c(nc4n3CCCC4)CCN2C(=O)COc2ccc(C(=O)NC3CC3)nc2Cl)c(F)c1 (centres unmarked) [Example 1.26.1, 6-chloro-N-cyclopropyl-5-(2-(1-(2-fluoro-4-(methoxymethyl)phenyl)-3,4,6,7,8,9-hexahydroimidazo[1,2-a:5,4-c′]dipyridin-2(1H)-yl)-2-oxoethoxy)picolinamide]
26 nM | Cc1ccc(C2c3c(nc4n3CCCC4)CCN2C(=O)COc2ccc(NS(C)(=O)=O)nc2Cl)c(F)c1F (centres unmarked) [Example 1.9.2, N-(6-chloro-5-(2-(1-(2,3-difluoro-4-methylphenyl)-3,4,6,7,8,9-hexahydroimidazo[1,2-a:5,4-c′]dipyridin-2(1H)-yl)-2-oxoethoxy)pyridin-2-yl)methanesulfonamide]
21 nM | COC(=O)c1ccc(C2c3c(nc4n3CCCC4)CCN2C(=O)COc2ccc(NS(C)(=O)=O)nc2Cl)c(F)c1 (centres unmarked) [Example 1.23.1, methyl-4-(2-(2-((2-chloro-6-(methylsulfonamido)pyridin-3-yl)oxy)acetyl)-1,2,3,4,6,7,8,9-octahydroimidazo[1,2-a:5,4-c′]dipyridin-1-yl)-3-fluorobenzoate]
13 nM | CCc1nc(NS(C)(=O)=O)ccc1OCC(=O)N1CCc2nc3n(c2C1c1ccc(Cl)cc1F)CCC3 (centres unmarked) [Example 2.1.2, N-(5-(2-(1-(4-chloro-2-fluorophenyl)-3,4,7,8-tetrahydro-1H-pyrrolo[2′,1′:2,3]imidazo[4,5-c]pyridin-2(6H)-yl)-2-oxoethoxy)-6-ethylpyridin-2-yl)methanesulfonamide]
13 nM | CNC(=O)c1ccc(OCC(=O)N2CCc3nc4n(c3C2c2ccc(Cl)cc2F)CCN(C(C)=O)C4)c(Cl)n1 (centres unmarked) [Example 5.1.2, 5-(2-(7-acetyl-1-(4-chloro-2-fluorophenyl)-3,4,6,7,8,9-hexahydropyrido[4′,3′:4,5]imida-zo[1,2-a]pyrazin-2(1H)-yl)-2-oxoethoxy)-6-chloro-N-methylpicolinamide]
48 nM | CS(=O)(=O)Nc1ccc(OCC(=O)N2CCc3nc4n(c3C2c2ccc(C#N)cc2F)CCCC4)c(Cl)n1 (centres unmarked) [Example 1.22.1, N-(6-chloro-5-(2-(1-(4-cyano-2-fluorophenyl)-3,4,6,7,8,9-hexahydroimidazo[1,2-a:5,4-c′]dipyridin-2(1H)-yl)-2-oxoethoxy)pyridin-2-yl)methanesulfonamide]
12 nM | O=C(NC1CC1)c1ccc(OCC(=O)N2CCc3nc4n(c3[C@@H]2c2ccc(Cl)cc2F)CCCC4)c(Cl)n1 [Example 1.1.16, (S)-6-chloro-5-(2-(1-(4-chloro-2-fluorophenyl)-3,4,6,7,8,9-hexahydroimidazo[1,2-a:5,4-c′]dipyridin-2(1H)-yl)-2-oxoethoxy)-N-cyclopropylpicolinamide]
33 nM | Cc1cnc(C2c3c(nc4n3CCCC4)CCN2C(=O)COc2ccc(C(=O)N(C)C)nc2Cl)c(F)c1 (centres unmarked) [Example 1.6.4, 6-chloro-5-(2-(1-(3-fluoro-5-methylpyridin-2-yl)-3,4,6,7,8,9-hexahydroimidazo[1,2-a:5,4-c′]dipyridin-2(1H)-yl)-2-oxoethoxy)-N,N-dimethylpicolinamide]
